Assay in all cases: NCI tumour cell line growth inhibition, 48 h
In test [1] the test system is T-47D breast.
In test [2] the test system is UO-31 renal.
The test system of test [3] is NCI-H23 lung.
The test system of test [4] is MDA-MB-231 breast.
Test [5] relates to HCC-2998 colon.
In test [6] the test system is LOX IMVI melanoma.
In test [7] the test system is CCRF-CEM leukemia.
Test [8] relates to HT29 colon.
Test [9] deals with HOP-62 NSCLC.
Test [10] concerns SNB-75 CNS.

In PubChem BioAssay (NCI) one finds TGI and GI50 data, which are given here for 16 molecules.

Each structure is given as a SMILES string.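 Results reflect a 48-hour exposure of cells in 96-well plates to compound at five concentrations. At the GI50, growth is halved. TGI marks complete inhibition of growth.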 Some results are limits rather than exact numbers.

As for `O=[N+]([O-])c1ccc(C2=Nn3c(nnc3-c3ccc(Cl)cc3)SC2)o1`, the TGI in test [1] stood at 12.9 µM; in test [2], 15.4 µM; in test [3], 18.6 µM; in test [4], 10.1 µM; in test [5] it was 5.72 µM; in test [6], 12.2 µM. Also, the TGI in test [7] was found to be 7.54 µM; in test [8], 11.1 µM; in [9], 24.9 µM; in [10], 32 µM.

Take `COc1ccc(Cn2cc3c(c2-c2ccccc2)CCc2cnoc2-3)cc1OC`: the GI50 was 0.664 µM in test [1]; 2.24 µM in test [2]; 1.46 µM in test [3]; 2.13 µM in test [4]; 2.19 µM in test [5]; 0.819 µM in test [6]. The GI50 in test [7] is 1.78 µM; in test [8], 0.387 µM; in test [9], 1.34 µM; in test [10] it was 0.669 µM. Further, the TGI in test [1] is 71.2 µM; in [2] it was more than 100 µM; in [3] it was more than 100 µM; in test [4], more than 100 µM; in test [5] it was more than 100 µM; in [6], more than 100 µM. Further, the TGI in test [7] was more than 100 µM; in [8], more than 100 µM; in test [9] it was more than 100 µM; in [10], 5.26 µM.

For the molecule `CN(C)CCCCC(C(=O)CBr)(c1ccccc1)c1ccccc1`, the GI50 in [1] was 1.14 µM; in test [2] it was 1.27 µM; in test [3], 2.81 µM; in test [4] it was 1.89 µM; in test [5], 2.44 µM; in [6], 1.44 µM. For the same molecule, the GI50 in test [7] is 2.06 µM; in test [8], 1.92 µM; in test [9] it was 8.06 µM; in [10], 1.87 µM. The TGI in [1] was 3.71 µM; in [2], 2.79 µM; in [3], 10.8 µM; in test [4], 4.49 µM; in test [5] it was 5.55 µM; in [6], 2.99 µM. Moreover, the TGI stood at 6.45 µM in test [7], 3.94 µM in [8], 23.6 µM in test [9] and 13.9 µM in [10].

Consider `CONC(C)=O`, for which the TGI in test [1], in [2], in [3], in test [4], in [5] and in test [6] was more than 100 µM each time. Moreover, the TGI in test [7], in test [8], in [9] and in test [10] was more than 100 µM in each case.

Turning to `Cc1cc(Nc2ncc3c(n2)N(C)C(=O)N(c2cc(NC(=O)c4cccc(C(F)(F)F)c4)ccc2C)C3)n(C)n1`, the GI50 is 0.0438 µM in test [1]; 0.0583 µM in test [2]; 0.0733 µM in test [3]; 0.0255 µM in [4]; 0.541 µM in test [5]; 0.0131 µM in [6]. The GI50 in [7] was 2.36 µM; in test [8], 0.023 µM; in test [9], 0.0769 µM; in [10] it was 0.0217 µM. For the same molecule, the TGI in test [1] is 2.24 µM; in [2], 0.322 µM; in test [3], more than 31.6 µM; in test [4], 0.164 µM; in [5] it was more than 46.4 µM; in [6], 0.0305 µM. Besides, the TGI is more than 46.4 µM in test [7], 0.0864 µM in test [8], more than 15.6 µM in test [9] and 0.0699 µM in test [10].

For `N=N/C(=C\c1c(O)[nH]c2ccccc12)c1ccccc1`, the TGI was more than 100 µM in [1]; more than 100 µM in test [2]; more than 87.8 µM in [3]; more than 76.5 µM in [4]; 63 µM in test [5]; more than 70.2 µM in test [6]. Besides, the TGI in test [7] was found to be 25.2 µM; in test [8], 44.9 µM; in test [9], 99.8 µM; in test [10], 63.8 µM.

As to `Cc1ccc2c(c1)c(Sc1ccc(C(=O)NO)cc1)c1n2CN(C)CC1`, the GI50 in [1] was 1.53 µM; in test [2] it was 2.15 µM; in test [3], 1.8 µM; in test [4] it was 1.51 µM; in [5], 1.64 µM; in [6], 1.59 µM. In addition, the GI50 is 1.3 µM in [7], 2.53 µM in [8], 1.61 µM in test [9] and 0.96 µM in test [10]. The TGI in [1] is 5.45 µM; in [2] it was 9.1 µM; in test [3] it was 3.85 µM; in test [4], 4.13 µM; in test [5], 3.67 µM; in test [6], 3.36 µM. In addition, the TGI in test [7] came out at 9.52 µM; in test [8], 8.38 µM; in test [9] it was 3.83 µM; in test [10], 3.76 µM.

In the case of `COc1ccc2c(c1)CC[C@@H]1[C@@H]2CC[C@]2(C)c3c(cc(C(=O)O)c4sccc34)C[C@@H]12`, the GI50 in test [1] is 8.21 µM; in test [2] it was 20.2 µM; in test [3], 18.5 µM; in test [4], 25.6 µM; in [5], 11 µM; in [6], 17.7 µM. In addition, the GI50 was 3.42 µM in test [7], 13.8 µM in [8], 19.6 µM in test [9] and 20.8 µM in [10]. Moreover, the TGI amounted to 49 µM in test [1]; 64.7 µM in test [2]; 39.2 µM in test [3]; 59.7 µM in test [4]; 26.7 µM in [5]; 42.8 µM in test [6]. Besides, the TGI in test [7] worked out at 13.3 µM; in test [8], 34 µM; in test [9], 38.5 µM; in test [10], 47.9 µM.

On to `CCCCCCCCCCCCSC1=C(Cl)C(=O)C(OC)=C(OC)C1=O`, for which the GI50 in [1] was 0.42 µM; in test [2], 2.27 µM; in test [3] it was 3.36 µM; in [4], 1.86 µM; in test [5], 2.41 µM; in test [6] it was 0.462 µM. Further, the GI50 is 1.53 µM in test [7], 3.22 µM in test [8], 6.07 µM in test [9] and 1.21 µM in [10]. Besides, the TGI in test [1] came out at 2.73 µM; in test [2] it was 11.5 µM; in test [3], 20.2 µM; in [4], 10.4 µM; in [5], 10.9 µM; in test [6], 5.38 µM. The TGI in test [7] is more than 100 µM; in test [8], 17.5 µM; in [9], 18.5 µM; in test [10], 10.7 µM.

Regarding `COCCNc1ccc2c3c(cccc13)C(=O)N(CCN(C)C)C2=O`, the GI50 is 4.87 µM in test [1]; 4.89 µM in test [2]; 8.04 µM in [3]; 12.9 µM in test [4]; 10.1 µM in test [5]; 7.06 µM in test [6]. For the same molecule, the GI50 was 6.38 µM in test [7], 7.66 µM in [8], 7.55 µM in test [9] and 15.9 µM in test [10]. For the same molecule, the TGI was 23.8 µM in test [1]; 19.5 µM in [2]; more than 25 µM in [3]; more than 25 µM in [4]; more than 25 µM in [5]; more than 25 µM in [6]. Further, the TGI in [7], in test [8], in test [9] and in test [10] was more than 25 µM throughout.

Consider `CCc1nc(N)nc(N)c1-c1ccc2nnn(O)c2c1`, for which the TGI in [1], in test [2], in [3], in test [4], in test [5] and in test [6] was more than 100 µM in each case. Also, the TGI in test [7], in test [8], in test [9] and in test [10] was more than 100 µM throughout.

As for `COc1ccc(Nc2cc(C)nc(NCc3ccccc3)n2)cc1`, the GI50 in test [1] was 2.6 µM; in test [2], 2.77 µM; in [3], 3.55 µM; in test [4] it was 3.45 µM; in [5], 2.02 µM; in test [6] it was 2.2 µM. Further, the GI50 is 3.06 µM in test [7], 2.81 µM in [8], 9.92 µM in [9] and 4.65 µM in test [10]. The TGI in test [1] was found to be 11.3 µM; in test [2], 15.9 µM; in test [3], 16.3 µM; in [4], 16.1 µM; in test [5], 4.04 µM; in test [6], 6.38 µM. Besides, the TGI in [7] is 23.7 µM; in [8] it was 12.7 µM; in test [9] it was 24.9 µM; in [10], 18.8 µM.

As to `Cc1nc(-c2nc(-c3ccc(OC(F)(F)F)cc3)no2)nn1Cc1cccc(N2CCC(S(C)(=O)=O)CC2)c1`, the GI50 is 0.0134 µM in [1]; 1.46 µM in [2]; less than 0.01 µM in [3]; 17.6 µM in test [4]; more than 40.6 µM in test [5]; 0.012 µM in test [6]. Also, the GI50 in test [7] was 7.41 µM; in test [8] it was more than 25 µM; in [9] it was more than 33.1 µM; in [10] it was 5.13 µM. Besides, the TGI in test [1], in [2], in test [3], in test [4], in [5] and in [6] was more than 100 µM in each case. In addition, the TGI was more than 100 µM in test [7], more than 100 µM in test [8], more than 100 µM in test [9] and 48.5 µM in test [10].

Consider `Cc1cc(O)cc(C)c1/C=C/c1cncc(C(N)=O)c1`, for which the GI50 in [1] was 1.8 µM; in test [2] it was 5.58 µM; in test [3] it was 7.24 µM; in [4] it was 2.15 µM; in test [5], 21.9 µM; in test [6] it was 1.94 µM. Besides, the GI50 in test [7] was 2.88 µM; in test [8] it was 6.9 µM; in [9], 2.8 µM; in [10], 2.81 µM. For the same molecule, the TGI in test [1], in [2], in test [3], in test [4], in test [5] and in test [6] was more than 25 µM throughout. For the same molecule, the TGI is more than 25 µM in test [7], more than 23.4 µM in test [8], more than 25 µM in test [9] and more than 18.2 µM in [10].

Take `O=c1[nH]c(=O)c2cc3cc(C4CC(O)C(CO)O4)ccc3cc2[nH]1` (stereo not given): the GI50 in [1] was more than 100 µM; in test [2] it was 8.48 µM; in test [3], more than 100 µM; in test [4], 65.7 µM; in test [5], more than 100 µM; in [6], more than 100 µM. For the same molecule, the GI50 in test [7] was more than 100 µM; in [8], more than 100 µM; in test [9] it was more than 100 µM; in test [10], 34.5 µM. For the same molecule, the TGI in test [1] was more than 100 µM; in [2] it was 67 µM; in test [3], more than 100 µM; in [4] it was more than 100 µM; in test [5], more than 100 µM; in test [6], more than 100 µM. The TGI in test [7], in test [8], in test [9] and in [10] was more than 100 µM throughout.

For `C=C1C(=O)O[C@H]2[C@H]1CC/C(C=Nc1c(N)cc(C(F)(F)F)cc1C(F)(F)F)=C\CC[C@@]1(C)O[C@@H]21`, the GI50 in test [1] is 0.55 µM; in test [2], 1.07 µM; in [3], 1.77 µM; in test [4], 1.38 µM; in test [5], 1.69 µM; in test [6] it was 1.07 µM. Moreover, the GI50 was 0.55 µM in test [7], 1.13 µM in test [8], 2 µM in test [9] and 1.78 µM in test [10]. In addition, the TGI stood at 2.64 µM in test [1]; 2.38 µM in [2]; 4.17 µM in test [3]; 3.79 µM in test [4]; 3.3 µM in [5]; 2.3 µM in test [6]. The TGI was more than 100 µM in test [7], 3.1 µM in [8], 4.19 µM in test [9] and 15.4 µM in test [10].
